Laboratory results taken from patent US10781426B2 (priority 2012, dated 2020).

Experiments:
DPP4 = assay type: cell-based
HCoV EMC = assay type: cell-based

Q: With `Nc1ncnc2c1ncn2[C@@H]1O[C@H](CO)[C@@H](O)[C@H]1O` [adenosine] as the molecule, how does the DPP4 expression (DPP4) read?
A: down regulates

Q: And the “cells' susceptibility to virus infection” value (HCoV EMC)?
A: reduces the cells' susceptibility to virus infection

Q: What about the virus replication (HCoV EMC) of the same molecule?
A: reduces virus replication
